# Measurements: patent publication US20090081170A1, “Cardiac progenitor cells” (priority 2007, published 2009)
# Where a SMILES comes first, the peptide text is derived from it.
# Experiments:
# [1] = test system: adult heart explants (adult EPDCs); experiment: Adult epicardial explant culture: EPDC outgrowth and differentiation; assay type: cell-based, mouse
# Method: A simple protocol for the outgrowth and differentiation of vasculogenic precursor cells (endothelial and vascular smooth muscle cells) from adult heart using Thymosin β4 to stimulate epicardial cell migration is described below.
# • 1. Coat 6-well plates with gelatin: pipette 2 ml 0.1% gelatin solution, allow to stand for 15 minutes and aspirate. Optionally, place coverslips into wells, prior to gelatin coating. • 2. Cull adult mouse by cervical dislocation. • 3. Using sterile forceps and scissors make a lateral incision in the centre of the abdomen and tear back the fur to expose the rib cage. • 4. Carefully cut upwards through the sternum and along the diaphragm, taking care not to cut into the heart. Pull back the ribs to reveal the heart. • 5. Remove the heart using forceps and dissect away the atria and major vessels, to leave right and left ventricles. • 6. Place tissue in a 60 mm tissue culture dish (non gelatin coated) containing 2 ml DPBS. Cut into quarters and allow blood to rinse from the tissue. Carefully aspirate away DPBS. Using a sterile scalpel, cut the heart into pieces of approximately 1 mm^3. Reproducible EPDC outgrowth strongly depends upon the size of the heart pieces (optimally 1 mm^3). Larger pieces will not adhere to permit sufficient migration while smaller pieces tend to dissociate completely and cardiomyocyte death precedes adherence and EPDC outgrowth. • 7. Divide heart pieces into 4 equal portions (1 adult heart is typically divided between 4 wells for optimal EPDC outgrowth). • 8. Pipette 2 ml of EPDC culture medium, supplemented with 100 ng/ml Tβ4, into each well to be used. • 9. Place 1 portion of heart tissue into the centre of each well and ensure that all pieces are submerged. • 10. Gently transfer the plate to a humidified 5% CO2 37° C. incubator. Maintain cultures with minimum disturbance to allow explants to adhere. No feeding is required for the first 72 hours. Minimal disturbance is absolutely essential for EPDC outgrowth. Explants adhere only tenuously in the first instance and disturbance in the first few days of culture will prevent adhesion or lead to detachment. Plates should be transferred extremely cautiously between incubator and microscope or culture hood. After sufficient EPDCs have emerged, explants attach more firmly but care is still required as detachment may easily occur. • 11. After 72 hours in culture, carefully transfer plate to culture hood, wash explants gently with DPBS and add 2 ml fresh EPDC medium containing 100 ng/ml Tβ4. Leave for a further 24 hours before assessment of cellular phenotype.
# • 1. Culture adult heart explants as described above. • 2. After 72 hours of culture, fix cells with 4% PFA for 10 minutes at room temperature. • 3. Wash cells twice with PBS. • 4. Permeabilise cells with 0.5% Triton X-100 in PBS for 5 minutes at room temperature. • 5. Wash cells twice with PBS. • 6. Block non-specific binding by incubating cells in BLOCK (1% BSA/10% sheep serum in PBS) for 1 hour at room temperature. • 7. Incubate cells with an appropriate dilution of primary antibody (epicardin, 1:100; SMalphaA, 1:700; Flk1, 1:100), or Procollagen type I, 1:100), in BLOCK. • 8. Wash cells 3 times using BLOCK. • 9. Incubate cells with the appropriate secondary antibody (epicardin: Cy3-conjugated anti-rabbit; SMalphaA: FITC-conjugated anti-mouse, 1:30; Procollagen type I: Alexa 488-conjugated anti-goat, 1:200; Flk1: Alexa 594-conjugated anti-rat, 1:200) diluted in BLOCK. • 10. Wash cells twice in PBS. • 11. Optionally, to stain nuclei, incubate with 5 ug/ml Hoechst in PBS for 5 minutes at room temperature. • 12. Wash cells twice in PBS. • 13. Mount coverslips onto microscope slides using 50% glycerol in PBS as mountant and visualize using a fluorescence microscope. […]
# [2] = test system: Tβ4shNk embryo hearts at E14.5; experiment: AcSDKP intraperitoneal injection into pregnant females, rescue of Tβ4 knockdown embryo hearts; assay type: in vivo, mouse; conditions: E14.5 Tβ4shNk embryos
# Excerpt: To investigate a role for Tβ4 during heart development and to provide insight into the mechanism by which the peptide mediates adult cardiac repair, we generated mouse embryos with heart-specific Tβ4 deficiency using a novel strategy of transgenic conditional RNA interference (RNAi; as described above). Floxed Tβ4 short hairpin RNA (Tβ4shRNAflox) mice were crossed with two strains of Cre-expressing mice: Nkx2-5^CreKI (designated Tβ4shNk), which directs Cre expression throughout the majority of cardiomyocytes, and MLC2vCreKI (designated Tβ4shMlc), which directs Cre expression specifically to ventricular cardiomyocytes. Tβ4shNk embryos were also observed to have thymic defects consistent not only with Cre expression driven by Nkx2-5 in the developing thymus, but also with the thymus representing an obvious source of Tβ4.
# We next investigated whether AcSDKP could rescue any of the vasculogenesis defects observed in the Tβ4 mutant hearts. […] This supports our interpretation of the primary phenotype in Tβ4 mutants. AcSDKP lacks actin binding function, rendering it unable to stimulate filamentous actin assembly and lamellipodia-based cell migration and consequently unable to rescue the EPDC defect. […]
smiles,measurement,setting,value
"CC(=O)N[C@@H](CO)C(=O)N[C@@H](CC(=O)O)C(=O)N[C@@H](CCCCN)C(=O)N1CCC[C@H]1C(=O)O [AcSDKP, N-acetyl-seryl-aspartyllysyl-proline] (Ac-SDKP-OH)",differentiated (Flk1-positive) endothelial cells,[1]; adult epicardial explants,striking increase
same,smooth muscle cells in treated cultures,"[1]; adult epicardial explants, data not shown",only very few smooth muscle cells observed
same,EPDC outgrowth from adult heart explants,"[1]; adult mouse heart explants, 8-12 weeks, vs untreated explants",unable to promote epicardial outgrowth beyond control levels
same,rescue of the phenotype attributed to Tβ4 knockdown,[2],failed to rescue any of the phenotype
